Results taken from BindingDB's records for doi:10.1016/j.bmcl.2019.05.013 (Daiichi Sankyo, 2019).

target: T1, Solute carrier family 2, facilitated glucose transporter member 4 (Rattus norvegicus, UniProt P19357); assay: Induction of GLUT4 translocation in rat L6-GLUT4myc differentiated myotube cells after 20 mins by chemiluminescent method
T1 sequence (P19357 whole entry): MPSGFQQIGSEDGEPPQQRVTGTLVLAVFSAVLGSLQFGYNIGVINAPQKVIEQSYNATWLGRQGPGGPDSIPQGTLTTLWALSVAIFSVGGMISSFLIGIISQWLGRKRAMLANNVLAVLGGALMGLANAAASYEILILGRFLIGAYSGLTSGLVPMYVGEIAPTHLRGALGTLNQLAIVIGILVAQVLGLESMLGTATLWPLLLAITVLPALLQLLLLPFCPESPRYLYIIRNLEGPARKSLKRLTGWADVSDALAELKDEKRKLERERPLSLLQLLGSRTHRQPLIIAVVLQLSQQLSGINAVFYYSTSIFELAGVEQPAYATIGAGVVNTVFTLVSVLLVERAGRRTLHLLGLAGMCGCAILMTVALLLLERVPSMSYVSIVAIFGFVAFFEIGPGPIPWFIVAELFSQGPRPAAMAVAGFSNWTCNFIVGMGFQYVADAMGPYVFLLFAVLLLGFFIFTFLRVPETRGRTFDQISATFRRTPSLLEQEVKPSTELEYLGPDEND

| EC50 | Compound |
| --- | --- |
| 650 nM | COc1ccccc1-c1nnc(Nc2ccc(CC(N)=O)cc2F)c2ccsc12 |
| 230 nM | COCCOCCOc1ccccc1-c1nnc(Nc2ccc(CC(N)=O)cc2F)c2ccsc12 |
| 120 nM | CC(C)(C)NC(=O)NCCOCCOc1ccccc1-c1nnc(Nc2ccc(CC(N)=O)cc2F)c2ccsc12 |
| 140 nM | COCCOc1ccccc1-c1nnc(Nc2ccc(CC(N)=O)cc2F)c2ccsc12 |
| 230 nM | CCOC(=O)NCCCCOc1ccccc1-c1nnc(Nc2ccc(CC(N)=O)cc2F)c2ccsc12 |

The next lines start with the compound.

| Compound | EC50 |
| --- | --- |
| COc1ccccc1-c1nnc(Nc2ccc(CC(N)=O)cc2)c2c1CCC2 | 4700 nM |
| NC(=O)Cc1ccc(Nc2nnc(-c3ccccc3OCc3cscn3)c3sccc23)c(F)c1 | 110 nM |
| CC(C)(C)OC(=O)NCCOCCOc1ccccc1-c1nnc(Nc2ccc(CC(N)=O)cc2F)c2ccsc12 | 24 nM |
| NC(=O)Cc1ccc(Nc2nnc(-c3ccccc3OCc3ccccn3)c3sccc23)c(F)c1 | 140 nM |
| NC(=O)Cc1ccc(Nc2nnc(-c3ccccc3OCC3COCCO3)c3sccc23)c(F)c1 (stereo unspecified) | 76 nM |
| CC(C)(C)OC(=O)NCCCCOc1ccccc1-c1nnc(Nc2ccc(CC(N)=O)cc2F)c2ccsc12 | 47 nM |
